The values below come from patent US9598418B2, “Substituted phthalazin-1 (2H)-one derivatives as selective inhibitors of poly (ADP-ribose) polymerase-1” (CADILA HEALTHCARE LIMITED, priority 2012, dated 2017).

The test system of assay [1] is SW620 colorectal tumor cells (xenograft tumors). Nature of the assay: In vivo antitumor efficacy in combination with temozolomide (TMZ) in an SW620 tumor model. The arrangement: species or system Female athymic nude mice. To be noted: compound 10 mg/kg, po + TMZ 50 mg/kg, once daily for 5 days. The protocol:
On basis of the in vitro data, the ability of selected compounds to potentiate the antitumor activity of the methylating chemotherapeutic agent, temozolomide, was evaluated in an SW 620 tumor model.
Animals bearing SW 620 xenograft tumors were treated with the compounds in combination with TMZ (50 mg/Kg, po) once daily for 5 consecutive days, after which the tumors were left to grow out.
Female athymic nude mice were used for antitumor in vivo studies. SW620 colorectal tumor cells (1×10^7 cells per animal) were implanted s.c. into one flank of each mouse. When tumors were palpable (10-12 days after implantation), animals were treated (n=6-8/group) with five daily doses of temozolomide administered per os as a suspension in 0.5% methyl cellulose at 50 mg/kg either alone or in combination with a five daily per os administrations of PARP inhibitor at different doses. Tumor growths were measured using two-dimensional caliper measurements. Tumor volume was calculated using the equation a^2×b/2, where a is the smallest measurement and b is the largest. Data are presented as median relative tumor volumes (RTV), defined as the calculated tumor volume divided by the calculated tumor volume on the initial day of treatment (day 0). Thus, on day 0, the RTV value is 1 and RTV4 is when the tumor is four times as large as its initial value. Control animals were treated with vehicle ([…] in methyl cellulose) alone tumor growth delay (TGD)=Time to RTV4 in treated group−time to RTV4 control.

The target in another assay is T1, PARP-1 (Homo sapiens, UniProt P09874).
T1 construct: purchased Trevigen
T1 sequence (P09874 whole entry): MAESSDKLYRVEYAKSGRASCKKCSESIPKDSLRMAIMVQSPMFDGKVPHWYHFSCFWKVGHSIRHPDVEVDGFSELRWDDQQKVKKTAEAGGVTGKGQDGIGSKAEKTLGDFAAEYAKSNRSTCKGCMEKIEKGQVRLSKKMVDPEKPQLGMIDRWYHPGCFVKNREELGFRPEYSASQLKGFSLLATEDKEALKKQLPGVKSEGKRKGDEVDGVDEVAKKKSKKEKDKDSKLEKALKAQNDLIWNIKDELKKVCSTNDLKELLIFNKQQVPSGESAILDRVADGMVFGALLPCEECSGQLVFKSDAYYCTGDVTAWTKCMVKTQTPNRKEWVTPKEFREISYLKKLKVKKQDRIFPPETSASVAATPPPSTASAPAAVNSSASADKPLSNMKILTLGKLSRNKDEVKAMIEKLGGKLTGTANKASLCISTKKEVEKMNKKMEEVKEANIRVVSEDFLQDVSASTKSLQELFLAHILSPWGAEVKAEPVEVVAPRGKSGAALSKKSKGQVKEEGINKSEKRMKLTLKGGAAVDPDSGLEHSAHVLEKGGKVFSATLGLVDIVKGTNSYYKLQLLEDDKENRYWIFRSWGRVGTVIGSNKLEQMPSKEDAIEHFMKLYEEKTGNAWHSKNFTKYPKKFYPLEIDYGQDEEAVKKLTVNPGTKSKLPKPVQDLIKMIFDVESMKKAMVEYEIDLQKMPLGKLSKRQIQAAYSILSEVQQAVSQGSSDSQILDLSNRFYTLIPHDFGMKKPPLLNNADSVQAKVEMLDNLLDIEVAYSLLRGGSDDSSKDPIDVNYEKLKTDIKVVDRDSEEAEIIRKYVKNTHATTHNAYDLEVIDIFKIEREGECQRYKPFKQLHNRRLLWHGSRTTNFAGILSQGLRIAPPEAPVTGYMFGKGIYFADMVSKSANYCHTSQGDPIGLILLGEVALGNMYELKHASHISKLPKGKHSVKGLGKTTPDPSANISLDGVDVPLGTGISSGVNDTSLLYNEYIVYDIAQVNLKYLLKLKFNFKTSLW
Nature of the assay: PARP-1 inhibitory activity, HT universal colorimetric PARP assay kit (Trevigen). The note with it: estimation as calculated from a 4 point dose response curve; read-out: PARP-1 activity in vitro IC50. The assay is classed as biochemical. As for the experimental part: The compounds were tested for PARP-1 inhibitory activity by using HT universal colorimetric PARP assay kit obtained from Trevigen, following manufacturer's protocol.

In the case of `Cn1cc2c(n1)CN(C(=O)c1cc(Cc3n[nH]c(=O)c4ccccc34)ccc1F)C2` [Compound 35, 4-(4-fluoro-3-(2-methyl-2,4,5,6-tetrahydropyrrolo[3,4-c]pyrazole-5-carbonyl)benzyl) phthalazin-1(2H)-one], the “Median time to RTV4” value in assay [1] (compound 45 min before TMZ) is on record as 50 days. Moreover, in assay [1] (time to RTV4 treated minus control), the “Tumor growth delay” value came out at 40 days. The IC50 at PARP-1 was 29.9 nM.
